Key:
C57BL6 mice = type: in vivo, mouse; conditions: 40 μg immunogen in IFA plus CpG adjuvant; spleen cells restimulated 7 days with peptide epitope; RMA-S targets, FIGS. 11A-11C
[1] = system: TAP deficient RMA-S targets; type: cell-based, mouse; conditions: ConA-activated CTL, 10 μM overnight
[2] = system: TAP-competent cells expressing H-2K^b (L-K^b); assay: Immunofluorescence and confocal microscopy of H-2K^b/OVA257 complexes, TAP-competent cells; type: cell-based, mouse; conditions: 25D1.16 staining
Procedure: (§1) T2/K^b or L-K^b cells were cultured overnight on poly-lysine treated glass coverslips. The culture medium was discarded, and the cells were gently washed with PBS. The cells were pre-incubated with serum-free AIM-V medium at 37° C. for 30 minutes and then incubated with peptide/TA solutions at the indicated concentrations for 12 hour at 37° C. After peptide loading, the cells were washed and fixed with 2% formaldehyde for 20 minutes at room temperature. For indirect immunofluorescence, fixed cell monolayers were permeabilized with 0.2% Triton X100 in PBS and incubated with PBS containing 5% goat serum to block non-specific protein binding sites. The cells were double-labeled with mouse monoclonal antibody 25D1.16 specific to OVA257/H-2K^b complex and rabbit polyclonal antibody TGN38 (TGN marker) or rabbit anti-calreticulin (ER marker), followed by 1 hour staining with FITC anti-mIgG and TR anti-rIgG as secondary antibodies. After washing, the coverslips were mounted for observation on glass slides using the Prolong Antifade Kit. The stained cells were examined and photographed with a Leica TCS-SL confocal laser-scanning microscope (Bensheim, Germany).
Utilizing the monoclonal antibody 25D1.16 that specifically reacts with H-2K^b/OVA257 complexes and confocal microscopy, the formation and presence of this CTL epitope in permeabilized TAP-competent and TAP-deficient cells expressing H-2K^b was evaluated. […] These cells were also stained with an antibody specific for calreticulin which is localized within the ER.

TAP-competent EL-4 cells = assay: Flow cytometry of surface H-2K^b/OVA257 complexes (25D1.16) with protease inhibitors, EL-4 cells; type: cell-based, mouse; conditions: decRVKR-CMK 60 μM, antigen 10 μM overnight, FIGS. 8A-8C
Procedure: (§2) The effects of protease inhibitors on antigen processing and presentation were evaluated by analysis of 25D1.16 staining on different antigen-pulsed EL-4 or T2/K^b cells using flow cytometric analysis. In brief, EL-4 or T2/K^b cells were washed twice with serum-free AIM-V medium (Life Technologies, Rockville, Md.), pre-treated with protease inhibitors (10 μM lactacycstin, 100 μM pepstatin or 60 μM decRVKR-CMK) for 30 minutes and then pulsed with equimolar concentrations of different (as indicated) peptides at 37° C. overnight with the continuous presence of the corresponding protease inhibitors. The serum-free AIM-V medium was used in order to exclude the potential involvement of serum proteases during the peptide-pulsing process. After washing the cells twice with FACS buffer (PBS (phosphate buffered saline) supplemented with 2% FBS and 0.2% sodium azide), peptide-loaded APC were stained with 25D1.16 antibody followed by FITC anti-mIgG for flow analysis. Untreated EL-4 and T2/K^b cells were pulsed with peptides and stained as controls.

RMA-S cells = assay: Flow cytometry of surface H-2K^b/OVA257 complexes on RMA-S cells with or without furin inhibitor; type: cell-based; conditions: 18 hours, 25D1.16 antibody, FIG. 13
Procedure: Aliquots of RMA-S cells were cultured without or with the furin inhibitor decRVKR-CMK (60 μM) at 37° C. After one hour of culture, 4 multiple epitope-containing TA (TA3-A, TA3-B, TA3-C, and TA3-D) or OVA257 were each added to separate cultures, which were then incubated for a further 18 hours. The cells were then harvested and the relative amounts of H-2K^b/OVA257 complexes expressed on the surfaces of the cells were assessed by fluorescence flow cytometry using the 25D1.16 antibody (FIG. 13). […] These findings underscore the importance of furin in processing of antigens to generate peptide epitopes that bind to MHC class I molecules and are then recognized by appropriate peptide epitope-specific CTL.

[3] = system: TAP-deficient cells (T2/K^b); assay: Immunofluorescence and confocal microscopy of H-2K^b/OVA257 complexes, T2/K^b cells; type: cell-based, human
Procedure: as §1
An antibody specific for trans-Golgi network (TGN38) was used to test whether H-2K^b/OVA257 complexes could also be detected in the trans-Golgi network of cells incubated with TA peptides. […] In these cells, antibody TGN38 stained brightly a structure corresponding to the trans-Golgi. […] These observations reinforce the findings that TA peptides need to penetrate cells in order to create MHC class I/peptide complexes. In addition, these complexes are observed in both the ER and trans-Golgi, even in TAP-deficient cells.

[4] = system: TAP-deficient T2/K^b cells; assay: Flow cytometry of surface H-2K^b/OVA257 complexes (25D1.16) with protease inhibitors, T2/K^b cells; type: cell-based, human; conditions: decRVKR-CMK 60 μM, antigen 10 μM overnight, FIGS. 8D-8F
Procedure: as §2
The data described above indicate that TA can be processed in various cellular compartments to produce small peptide epitopes that subsequently associate with MHC class I molecules and the resulting peptide-MHC class I complexes are then transported to the cell surface. Antigen processing could take place: (1) in the cytoplasm, via proteasomal degradation followed by TAP transport; (2) within the ER, where peptide trimming via an aminopeptidase could occur; (3) in the trans-Golgi, where processing of antigens through proteases such as furin can occur; and/or (4) in early endocytic compartments, where peptides that could either bind to recycling MHC class I molecules or leak into other compartments of the MHC class I pathway can be generated. Utilizing antibody 25D1.16, we studied the effects of various inhibitors of antigen processing in the formation of H-2K^b/OVA257 surface complexes by peptides OVA257-HIVtat and HIVtat-OVA257.

[5] = system: Murine dendritic cells (DC); assay: Persistence in dendritic cells: IFN-γ ELISA of OT-1 CTL cultured with pulsed DC; type: cell-based, mouse; conditions: DC pulsed 10 μM 2 hours, washed, further 48 hours, CTL:DC 10:1 for 24 hours, FIG. 14
Procedure: Murine dendritic cells (DC) were prepared by culturing C57BL6 mouse (H-2^b) bone marrow […] in the presence of granulocyte macrophage colony stimulating factor (GM-CSF) and interleukin-4 (IL-4) by a method essentially the same as that described by Son et al. [(2002) J. Immunol. Meth. 262:145-157] except that non-adherent cells are removed from the cultures and discarded on day 2 of culture and no density gradient centrifugation step was used. Cells not adhering to the plastic tissue culture vessel at day 6 of culture were harvested and used as DC.
DC were pulsed with either the TA HIVtat-OVA257 (see Table 2) or the peptide epitope OVA257, each at a concentration of 10 μM, for 2 hours at 37° C. The cells were then washed free of the TA or peptide epitope and incubated for a further 48 hours. They were then cultured with cells of the OT-1 CTL clone (specific for H-2K^b/OVA257) at a CTL to DC ratio of 10:1 for 24 hours. Supernatants were then removed from the cultures and the relative amounts of IFN-γ in various dilutions of each supernatant were measured by ELISA (FIG. 14). […] These findings indicate that a peptide epitope persists in DC for a longer period of time when taken up by DC in the form of a TA than when taken up by DC in the form of the peptide epitope per se.

Sequence: IKAVYNFATCGRVKRSIYRYYGLRVKRSIINFEKLAAARKKRRQRRR [TA3-A]
- induction of CTL responses by in vivo vaccination (C57BL6 mice): at least as effective as the peptide mixture
- sensitization of targets for killing by OVA257-specific CTL ([1]; FIG. 9 left panel): could effectively kill targets sensitized
- sensitization of targets for killing by 2C-specific CTL ([1]; FIG. 9 middle panel): could effectively kill targets sensitized

Sequence: SIINFEKL [OVA257, reference compound]
- presence of H-2K^b/OVA257 complexes in permeabilized cells [2]: abundant
- effect of furin inhibitor decRVKR-CMK on expression of surface H-2K^b/OVA257 complexes (decrease) (TAP-competent EL-4 cells): no effect was observed
- cell-surface H-2K^b/OVA257 complexes after exposure of cells (RMA-S cells): detectable levels
- location of H-2K^b/OVA257 complexes on the cell-surface ([3]; 25D1.16 staining): most of the H-2K^b/OVA257 complexes were on the cell-surface
- localization of H-2K^b/OVA257 complexes to the trans-Golgi ([3]; 25D1.16 superimposed with TGN38 staining): no localization to the trans-Golgi
- effect of furin inhibitor decRVKR-CMK on expression of surface H-2K^b/OVA257 complexes (decrease) [4]: no effect was observed
- IFN-γ produced by OT-1 CTL cultured with pulsed DC [5]: insignificant levels of IFN-γ

Reference: US8822182B2, “Chimeric antigen-specific T cell-activating polypeptides” (Mayo Foundation for Medical Education and Research, priority 2001, dated 2014)
